In series [1] the test system is L1210 leukemia cells. In words: Survival of mice transplanted with L1210 leukemia cells. Type of series: in vivo, DBA2 mice. Conditions: single agent: AraC 1000 mg/kg IP Days 2, 5, 8, or DNase II 15 or 45 mg/kg/day IP; Figure 4. As for the experimental part: Treatment with DNase and AraC was initiated on Day 1 of experiment. Cytosine arabinoside (AraC; Cytosar; Pfizer) was injected IP at a dose of 1000 mg/kg on Days 2, 5 and 8. The injected doses were considered adequate for the model and injection route based on prior experiments (13-14). DNase II (Wornington) was injected IP at doses of 15 mg/kg/day and 45 mg/kg/day on Days 1, 3, 5, 8, 10, 12, 15, 17, and 19.
Animals were randomized into 6 experimental groups of 6 mice per group as follows: • 1. Group I: negative control (no treatment); • 2. Group II: positive control (animals treated with AraC); • 3. Group III: animals treated with AraC and 15 mg/kg DNase; • 4. Group IV: animals treated with AraC and 45 mg/kg DNase; • 5. Group V: animals treated with 15 mg/kg DNase, no AraC; • 6. Group VI: animals treated with 45 mg/kg DNase, no AraC.

For series [2] the following is noted: Etoposide 200 mg/kg + 5-FU 400 mg/kg per os, treatment 50 mg/kg IV. As for the experimental part: On Day 1, Etoposide (LANCE) 200 mg/kg and 5-fluorouracil (5-FU; EBEWE) 400 mg/kg were given orally via feeding needle in 500 pl of a 9% glucose solution. Animals were divided into 4 groups of 16 rats each. […] Group I: IV placebo (WFI); • 2. Group II: human recombinant DNase I (Pharmsynthez OJSC) at 1.5 mg/kg (3000 KU/kg) dose IV; • 3. Group III: human recombinant DNase I (Pharmsynthez OJSC) at 50 mg/kg (100000 KU/kg) dose IV; • 4. Group IV: cimetidine solution (Gedeon Richter) at 50 mg/kg dose IV.
36 hours later, all animals were euthanized and their stomachs were removed and analyzed for the presence of erosions and hemorrhages using an automated video analyzer system.

The conditions of series [3]: for Body weight of surviving rats: Doxorubicin 3.75 mg/kg plus DNase I 15 mg/kg/day IP or placebo; for Number of dead/out of total in group: monitored 2 weeks. The source says: Group I: control group (no Doxorubicin, no DNase); • 2.
Animals were monitored during 2 weeks from the beginning of experiment for survival and weight.

For series [4] the following is noted: surviving rats, Day 14; Doxorubicin 3.75 mg/kg plus DNase I 15 mg/kg/day IP or placebo.
Protocol: 42 Wistar male rats (180-200 g) were used in this experiment (obtained from Stolbovaya nursery of Russian Academy of Medical Sciences). Animals were kept under standard conditions with free access to food and drinking water. Animals were randomized into 7 groups (6 animals in each group) as follows: • 1. Group I: control group (no Doxorubicin, no DNase); • 2. Group II: animals treated by daily intravenous (IV) injections of Doxorubicin (LENS) at 3.75 mg/kg/day dose for 5 days plus daily intraperitoneal (IP) injections of human recombinant DNase I (Pharmsynthez OJSC) at 15 mg/kg/day dose (30000 KU/kg/day); Doxorubicin and DNase I injections were administered at the same time; • 3. Group III: animals treated by daily IV injections of Doxorubicin (LENS) at 3.75 mg/kg/day dose for 5 days plus daily IP injections of placebo (water for injection [WFI]); • 4. Group IV: animals treated by daily IV injections of Doxorubicin (LENS) at 7.5 mg/kg/day dose for 5 days plus daily IP injections of human recombinant DNase I (Pharmsynthez OJSC) at 15 mg/kg/day dose (30000 KU/kg/day); Doxorubicin and DNase I injections were administered at the same time; • 5. Group V: animals treated by daily IV injections of Doxorubicin (LENS) at 7.5 mg/kg/day dose for 5 days plus daily IP injections of placebo (WFI); • 6. Group VI: animals treated by daily IV injections of Doxorubicin (LENS) at 10.0 mg/kg/day dose for 5 days plus daily IP injections of human recombinant DNase I (Pharmsynthez OJSC) at 15 mg/kg/day dose (30000 KU/kg/day); Doxorubicin and DNase I injections were administered at the same time; • 7. Group VII: animals treated by daily IV injections of Doxorubicin (LENS) at 10.0 mg/kg/day dose for 5 days plus daily IP injections of placebo (WFI).
Series [5] deals with Thymocytes. In words: Con A-induced lymphocyte blast transformation of thymocytes from paclitaxel-treated mice (3H thymidine incorporation). Type of series: in vivo, (CBAxC57Bl6) F1 mice. Conditions: thymocytes collected 24 hours after paclitaxel 20 mg/kg IV, with or without DNase gamma 2 mg/kg IP 1 hour later, scintillation counts. Here is the method: 10 male 6-week-old (CBAxC57Bl6) F1 mice (obtained from Rappolovo animal house) were given a single 20 mg/kg dose of paclitaxel (Paclitaxel-Teva) IV. A group of 5 paclitaxel treated mice were injected IP 1 hour later with recombinant mouse DNase gamma (USCN Life Science Inc.) at 2 mg/kg dose IP. A group of 5 […] mice were injected IP at the same time with 1 ml of placebo (WFI) to serve as the control. All mice were killed 24 hours later by cervical dislocation. The thymuses from each group were collected and homogenized in a separator in RPMI 1640 media supplemented with 10% fetal calf serum. The suspension of thymocytes was filtered and sedimented in a centrifuge at 400xg for 2 minutes and then resuspended with the same media. Thymocytes were plated into 96 well plates (900,000 cells per well in 200 pl of RPMI 1640 supplemented with 10% fetal calf serum (FCS)) and incubated for 32 hours at 37°C, 100% humidity and 5% COz atmosphere. Each well was then supplemented with ^3H thymidine (UC/10pl/well) and Concanavalin A (ConA; 50pl; 1.25 pg/ml). After 24 hours of further incubation, thymocytes were harvested and dried. Labeled ^3H thymidine incorporation was measured using a Beckman scintillation counter.
(Incorporation of labelled thymidine or its analogues reports DNA synthesis.)

[6] abbreviates: Doxorubicin 3.75 mg/kg/day IV for 5 days plus DNase I 15 mg/kg/day IP or placebo (WFI).
[7] abbreviates: Doxorubicin 7.5 mg/kg/day IV for 5 days plus DNase I 15 mg/kg/day IP or placebo (WFI).
Setting [8] is: Doxorubicin 10.0 mg/kg/day IV for 5 days plus DNase I 15 mg/kg/day IP or placebo (WFI).

Structures are written as SMILES. Where two headings read alike, the source gives them in different places.

Turning to `Nc1ccn([C@@H]2O[C@H](CO)[C@@H](O)[C@@H]2O)c(=O)n1` [AraC, cytosine arabinoside], the survival rates result in series [1] is recorded as “better survival rates versus non-treated mice”.

With `CN/C(=N/CCSCc1nc[nH]c1C)NC#N` [Cimetidine, cimetidine], in series [2], the “Median number of lesions” value amounted to 2.5±1.1 and the “Number of lesion free animals (percent)” value is on record as 62.5%. In addition, in series [2] (16 animals, 36 hours later), the “Total number of lesions per group” value was found to be 40. The “Number of lesion free animals” value in series [2] (of 16 animals) is reported as 10.

Take `COc1cccc2c1C(=O)c1c(O)c3c(c(O)c1C2=O)C[C@@](O)(C(=O)CO)C[C@@H]3O[C@H]1C[C@H](N)[C@H](O)[C@H](C)O1` [Doxorubicin]: the “Body weight of surviving rats” value in series [3] (Baseline (before doxorubicin)) is given as 164 ± 6 grams. Moreover, the “Body weight of surviving rats” value in series [3] (Day 4) is recorded as 143 ± 6 grams. Further, the “Body weight of surviving rats” value in series [3] (Day 7) was found to be 151 ± 7 grams. For the same compound, in series [3] (Day 14), the “Body weight of surviving rats” value is reported as 156 ± 6 grams. In series [3] (setting [6]), the “Median survival of deceased rats” value is 12 ± 2.1 days and the “Number of dead/out of total in group” value is listed as 3/6. Besides, in series [3] (setting [7]), the “Median survival of deceased rats” value was found to be 8.2 ± 1.0 days and the “Number of dead/out of total in group” value is reported as 5/6. In series [3] (setting [8]), the “Median survival of deceased rats” value turned out to be 6.6 ± 0.9 days and the “Number of dead/out of total in group” value was 6/6. For the same compound, in series [4], the Basophils is recorded as 0%, the Eosinophils stood at 2.4±0.3%, the Glucose stood at 6.1 ± 0.2 mmol/L and the Haemoglobin was found to be 9.5±0.7 G%. Moreover, in series [4], the Hematocrit was 30.5±2.2%, the K is 5.6 ± 0.3 mmol/L, the Lymphocytes is recorded as 82.3±2.2% and the Monocyte was 2.3±0.5%. In series [4], the Na came to 144 ± 2 mmol/L, the Plasmatic cells came to 1.3±0.5%, the Platelets was 340±25 10^9/L and the Protein was 54.7 ± 7.3 g/L. In series [4], the RBC sedimentation count is given as 24.1±4.5 mm/h, the Segmented neutrophils is on record as 11.6±1.3%, the Total cholesterol was determined as 1.10 ± 0.29 mmol/L and the Total lipids turned out to be 2.06 ± 0.27 g/L. In addition, in series [4], the Urea was determined as 7.21 ± 0.3 mmol/L and the WBC is given as 4.9±0.2 10^9/L.

With `CC(=O)O[C@H]1C(=O)[C@@]2(C)[C@H]([C@H](OC(=O)c3ccccc3)[C@]3(O)C[C@H](OC(=O)[C@H](O)[C@@H](NC(=O)c4ccccc4)c4ccccc4)C(C)=C1C3(C)C)[C@]1(OC(C)=O)CO[C@@H]1C[C@@H]2O` [Paclitaxel, paclitaxel], in series [5] (ConA), the “Con A-induced ^3HT incorporation” value came out at 1686±142 CPM. The “Basal ^3HT incorporation” value in series [5] stood at 277±21 CPM.

For the origin of these results see patent EP3878462B1 (priority 2015, dated 2017).
